# Columns and labels:
# [1] = test system: A549 lung adenocarcinoma cells; test: Time-lapse microscopy count of multi-daughter divisions (DNV frequency), A549; format: cell-based, human; details: wogonin 50 μM, 5-FU 20 μM
# Description: To investigate DNVs, the human HepG2 hepatocellular carcinoma, HeLa cervical adenocarcinoma, and A549 lung adenocarcinoma cell lines, as well as the non-cancerous RPE1 line of hTRET-immortalized retina epithelial cells, were obtained from the American Type Culture Collection (ATCC, Manassas, Va., USA) and cultivated in Dulbecco's Modified Eagle Medium (DMEM) supplemented with 10% fetal bovine serum (Gemini Bio-Products, Sacramento. Calif.) under a humidified atmosphere of 5% C02 at 37° C. After 24 hours, the old medium was replaced by acidic DMEM growth medium buffered by 15 mM 2-(N-morpholino)-ethanesulfonic acid.HCl (MES) at pH 6.4, neutral DMEM growth medium buffered by 15 mM 3-(N-morpholino)propanesulfonic acid.HCl (MOPS) at pH 7.4, alkaline growth medium buffered by 15 mM tris(hydroxymethyl)aminomethane.HCl (Tris) at pH 8.4, or neutral DMEM growth medium containing wogonin (50 μM) or 5-FU (20 μM). Using phase contrast microscopy, time-lapse photographs were recorded at different positions of the wells at 15-minute intervals for 24 hours using the Nikon ECLIPSE Ti Live Cell Imaging Observatory, enabling the count of P1 through P8 patterns at the end of Stage 2 of the DNV process (FIG. 1). All the images were photographed at 100× magnification. Altemately, using fluorescence microscopy, the cells were seeded into 12 well plates at 1×10^3 per well and stained with Hoechst 33342 ([…], Thermofisher) for 30 minutes in an incubator at 37° C. After 30 minutes, culture medium was replaced by various treatment media and placed under the Nikon ECLIPSE Ti Live Cell Imaging Observatory for 24 hours. For the HeLa, HepG2 and A549 cells, the various treatments were also extended to 5 days. Because the RPE1 cells yielded no DNVs after 24 hours of drug treatment, its treatment periods were not extended beyond 24 hours. All the cells were manually traced and quantified using the ImageJ software. DNV frequencies were estimated by dividing the total number of multi-daughter ([…]) divisions by the total number of cell divisions. Fluorescence staining and time-lapse microscopy were employed to differentiate between the bi-, tri-, tetra- and penta-daughter cell divisions, and to estimate the percentages of the P1 through P8 patterns in the final daughter cells generated by each of the DNV events. GraphPad Prism 5.0 software was employed for statistical analysis, and the results were presented as the mean. Significance was determined using the Student t-test (two-tailed, unpaired/unequal variances).
# HeLa cells = test: Cell cytotoxicity assay (crystal violet), HeLa; format: cell-based, human; details: 24 hours, 50 μM wogonin, 20 μM 5-FU, absorbance 600 nm
# Description: Cell cytotoxicity assay was carried out on 96 well plate, where cells were treated with neutral, acidic, alkaline pH and anti-cancer drug wogonin or 5-FU. After 24 hours, crystal violet (8% in methanol), and dye absorbed by live cells was extracted with sodium citrate (0.1 M) in 50% ethanol. Absorbance was read at 600 nm.
# HepG2, HeLa and A549 cells were grown to a monolayer density of 1×10^3 per well in neutral growth medium overnight. There upon the cells were changed to various treatment media at neutral, acidic and alkaline pHs, neutral medium containing 50 μM wogonin and neutral medium containing 20 μM 5-FU, for 24 hours at 37° C. in humidified 5% CO2 atmosphere. Following the treatment, floating cells were removed, and the attached cells were stained with crystal violet (8% in methanol); the dye absorbed by the live cells was extracted with sodium citrate (0.1 M) in 50% ethanol [1 25], and quantitated by absorbance at 600 nm.
SMILES,"Bi-daughter divisions, % of total divisions ([1]; A549, 24 hours)","Bi-daughter divisions, number ([1]; A549, 24 hours)","Sum of Multi-daughter Divisions, % of total mitotic divisions ([1]; A549, 24 hours)","Sum of Multi-daughter Divisions, number ([1]; A549, 24 hours)","Total number of observed divisions ([1]; A549, 24 hours)","Tri-daughter divisions, % of total divisions ([1]; A549, 24 hours)","Tri-daughter divisions, number ([1]; A549, 24 hours)","Bi-daughter divisions, % of total divisions ([1]; A549, 5 days)","Bi-daughter divisions, number ([1]; A549, 5 days)","Sum of Multi-daughter Divisions, % of total mitotic divisions ([1]; A549, 5 days)","Sum of Multi-daughter Divisions, number ([1]; A549, 5 days)","Tetra-daughter divisions, number ([1]; A549, 5 days)","Total Divisions ([1]; A549, 5 days)","Tri-daughter divisions, % of total divisions ([1]; A549, 5 days)","Tri-daughter divisions, number ([1]; A549, 5 days)","≥Tetra-daughter divisions, number ([1]; A549, 5 days)",Cell death as compared to neutral pH (HeLa cells),"Sum of Multi-daughter Divisions, % of total mitotic divisions ([1]; A549, 24 hours, listed as wogonin)","Tetra-daughter divisions, % of total divisions ([1]; A549, 5 days)"
"O=c1[nH]cc(F)c(=O)[nH]1 [5-FU, 5-flurouracil]",99.9%,2205,0.13%,3,2208 (100),0.13%,3,97%,259,3.0%,8,0,267 (100),3%,8,0,increased cell death,,
"COc1c(O)cc(O)c2c(=O)cc(-c3ccccc3)oc12 [Wogonin, wogonin]",99.6%,1986,0.3%,6,1992 (100),0.30%,6,94.6%,230,5.3%,13,6,243 (100),2.8%,7,0,increased cell death,0.30%,2.4%

# Source: patent US11952593B2, “Detection and treatment of daughter number variations in cancer cells” (PharmacoGenetics Limited, priority 2020, dated 2024)
